# Results published in patent US4937263A, “Antihypercholesterolemic compounds” (Merck & Co., Inc., priority 1989, dated 1990).
# Tested on: HMG-CoA reductase
# Assay: HMG-CoA Reductase Inhibition Assay (in vitro, intrinsic inhibition)
# Format: biochemical
# Conditions: IC50 of test compound compared with compactin determined simultaneously, compactin assigned 100; tested as sodium salt of dihydroxy acid form; solubilized rat liver microsomal enzyme
# Experimental: The intrinsic HMG-CoA reductase inhibition activity of the claimed compounds is measured in the in vitro protocol published in J. Med. Chem., 28, p. 347-358 (1985) and described below:
# Male Holtzman Sprague-Dawley rats (225-250 g) were kept on reversed lighting and fed Purina rat chow containing 3% cholestyramine for 7 days preceding their sacrifice by CO2 asphyxiation. Livers were removed 6 hours into the dark cycle and used immediately to prepare microsomes. HMG-CoA reductase was solubilized from the freshly prepared microsome by the method of Heller and Shrewsbury [J. Biol. Chem., 1976, 251, 3815] and purified through the second ammonium sulfate precipitation step as described by Kleinsek et al. [Proc. Natl. Acad. Sci. U.S.A., 1977, 74, 1431]. The enzyme preparation was tested for HMG-CoA reductase potency and diluted with 100 mM phosphate buffer (pH 7.2) so that 100 μl of the enzyme solution, when added to the assay control, gave a value of 50,000-60,000 dpm. The enzyme preparation was stored at -80° C.
# The assay is essentially the procedure of Shefer et al. [J. Lipid Res., 1972, 13, 402]. The complete assay medium contained the following in a total volume of 0.8 ml: phosphate buffer, pH 7.2, 100 mM; MgCl2, 3 mM; NADP, 3 mM; glucose 6-phosphate, 10 mM; glucose-6-phosphate dehydrogenase, 3 enzyme units; reduced glutathione, 50 mM; HMG-CoA (glutaryl-3-^14 C., New England Nuclear), 0.2 mM (0.1 μCi); and partially purified enzyme stock solution, 100 μL.
# Test compounds or compactin (after first being converted to the sodium salt of their dihydroxy acid form in situ by addition of IN NaOH (1 equivalent) were added to the assay system in 10 μL volumes at multiconcentration levels. After a 40 minute incubation at 37° C. with shaking and, exposure to air, the reaction was stopped by the addition of 0.4 mL of 8 N HCl. After an additional 30-minute incubation period at 37° C. to ensure the complete lactonization of mevalonic acid to mevalonolactone, 0.2 ml of the mixture was added to an 0.5×5.0 cm column containing 100-200 mesh Bio-Rex 5,chloride form (Bio-Rad), wetted with distilled water, as described by Alberts et al [J. Proc. Natl. Acad. Sci. U.S.A., 1980, 77, 3967]. The unreacted [^14 C]HMG-CoA was absorbed on the resin and the [^14 C]mevalonolactone was eluted with distilled water (2×1 ml) directly into 7-ml scintillation vials. Five milliliters of Aquasol-2 (New England Nuclear) was added to each vial, and radioactivity was measured in a Packard Tri Carb Prias scintillation counter. IC50 values were determined by plotting percentage inhibition against test compound concentration and fitting a straight line to the resulting data by using the least squares method. For estimation of relative inhibitory potencies, compactin was assigned a value of 100 and the IC50 value of the test compound was compared with that of compactin determined simultaneously.
row,SMILES,Relative Potency
1,C[C@H]1C=C2C=C[C@H](C)[C@H](CC[C@@H](O)C[C@@H](O)CC(=O)O)[C@H]2[C@@H](OC(=O)C(C)(C)c2ccccc2)C1,88
2,C[C@H]1C=C2C=C[C@H](C)[C@H](CC[C@@H](O)C[C@@H](O)CC(=O)O)[C@H]2[C@@H](OC(=O)C(C)(C)c2ccc(O)cc2)C1,217
3,C[C@H]1C=C2C=C[C@H](C)[C@H](CC[C@@H](O)C[C@@H](O)CC(=O)O)[C@H]2[C@@H](OC(=O)C(C)(C)c2cccc(O)c2)C1,197
4,C[C@H]1C=C2C=C[C@H](C)[C@H](CC[C@@H](O)C[C@@H](O)CC(=O)O)[C@H]2[C@@H](OC(=O)C(C)(C)Cc2ccccc2)C1,173
5,COc1ccc(C(C)(C)C(=O)O[C@H]2C[C@@H](C)C=C3C=C[C@H](C)[C@H](CC[C@@H](O)C[C@@H](O)CC(=O)O)[C@H]32)cc1,144
6,C[C@H]1C=C2C=C[C@H](C)[C@H](CC[C@@H](O)C[C@@H](O)CC(=O)O)[C@H]2[C@@H](OC(=O)C(C)(C)c2ccc(CO)cc2)C1,36
7,C[C@H]1C=C2C=C[C@H](C)[C@H](CC[C@@H](O)C[C@@H](O)CC(=O)O)[C@H]2[C@@H](OC(=O)C(C)(C)c2ccc(O)c(F)c2)C1,217
8,C[C@H]1C=C2C=C[C@H](C)[C@H](CC[C@@H](O)C[C@@H](O)CC(=O)O)[C@H]2[C@@H](OC(=O)C(C)(C)Cc2ccc(O)cc2)C1,280
9,C[C@H]1C=C2C=C[C@H](C)[C@H](CC[C@@H](O)C[C@@H](O)CC(=O)O)[C@H]2[C@@H](OC(=O)C(C)(C)Cc2cc(O)cc(O)c2)C1,333
10,C[C@H]1C=C2C=C[C@H](C)[C@H](CC[C@@H](O)C[C@@H](O)CC(=O)O)[C@H]2[C@@H](OC(=O)C(C)(C)CCc2ccccc2)C1,100
11,CCOc1ccc(C(C)(C)C(=O)O[C@H]2C[C@@H](C)C=C3C=C[C@H](C)[C@H](CC[C@@H](O)C[C@@H](O)CC(=O)O)[C@H]32)cc1,47
